# Measurements reported in US20070107077A1, “Microprojectile bombardment transformation of brassica” (Pioneer Hi-Bred International, Inc., priority 2005, published 2007).
# Several values for one entry are separate records, joined by “and”; a condition that tells them apart may be missing. Identical values can stand only once. Counter-ions that a name gives are not always drawn.
# Key:
# Parameters in all cases: species or system Brassica
# non-bombarded embryos = assay: Effect of kanamycin on embryo growth in liquid medium, non-bombarded embryos
# Excerpt: (§1) Prior to this experiment, selection was done on solid medium, not in liquid medium. Using liquid selection for Brassica transgenic cells is novel. Selection in liquid medium is advantageous for at least the following reasons: (a) it allows selection at an early stage, thereby eliminating the need for subsequent transfers of explants, (b) it allows for a cleaner selection because the explants are generally smaller when they are in liquid medium and the liquid allows all the surfaces of the explant to be exposed to the selection agent, (c) it may reduce the frequency of chimeras, and (d) a lower amount of the selection agent is needed therefore reducing the toxicity to the researcher and the environment. The effect of various concentrations of kanamycin on embryo growth in liquid medium was tested. […] Accordingly, it was difficult to discriminate transgenic tissue or embryos from non-transgenic.
# [1] = system: non-transgenic microspores; assay: Selection kill curve using Geneticin (G418): embryo growth and survival in liquid medium
# Excerpt: The objective was to determine the concentration of G418 that kills non-transgenic microspores.
# as §1
# [2] = system: pre-incubated microspores bombarded with PHP22021 and PHP22024; assay: Glyphosate resistant embryo selection in liquid medium NLN-6.5S after bombardment
# Procedure: Pre-incubated microspores were used as bombarded materials. Any Brassica line that is capable of regenerating by microspore culture can be used. The microspores were cultured for 1-3 days in NLN-17S at 31.5° C, and then in NLN-10S for 4-5 days at 25° C. The constructs used in the bombardments were PHP18644, PHP21965, PHP22024, PHP22021, and PHP23560 (see Table 9). The constructs can be the full plasmid or the expression cassette only. For example, PHP22024 can be either the expression cassette or the full plasmid. The pre-incubated microspores were filtrated with sieves of pore size of […] to 36 μm. The collected microspores were used for bombardment. The microspores were loaded on a sieve 15 μm or 20 μm on two layers of filter-paper and dried for less than one minute. The microspores and sieves were transferred to osmotic medium that contained B5 components, 1 g/l MES and 0.8-1.6% gelrite, 15-21% sucrose (pH 6.0). The microspores were treated for at least one hour on the osmotic medium before bombardment. The pre-incubated microspores were bombarded with 12.5 ng to 5 μg DNA per preparation, 15-100 μg Au particles per shot, 2.5 M CaCl2, and 650-900 psi rupture disk. […] Resistant embryos were recorded after two to three weeks of culture. […]
compound,measurement,setting,value
NC[C@H]1O[C@H](O[C@H]2[C@H](O)[C@@H](O[C@H]3O[C@H](CO)[C@@H](O)[C@H](N)[C@H]3O)[C@H](N)C[C@@H]2N)[C@H](O)[C@@H](O)[C@@H]1O [kanamycin],concentration sufficient to bleach non-bombarded embryos and inhibit non-bombarded embryo growth,non-bombarded embryos,10 mg/L
"CN[C@@H]1[C@@H](O)[C@@H](O[C@@H]2[C@@H](O)[C@H](O[C@H]3O[C@H]([C@@H](C)O)[C@@H](O)[C@H](O)[C@H]3N)[C@@H](N)C[C@H]2N)OC[C@]1(C)O [G418, G418 disulfate salt]",# Green embryos or with green island,"[1]; G418 1.25 mg/l, disulfate salt",30 (paler) and 28 (paler)
same,# Green embryos or with green island,"[1]; G418 2.5 mg/l, disulfate salt","14 (light green, smaller size) and 11 (light green, smaller size)"
same,# Green embryos or with green island,[1]; G418 5 mg/l,0
same,# Green embryos or with green island,[1]; G418 10 mg/l,0
same,concentration sufficient to differentiate transformed cells from untransformed cells (cleaner selection),[1]; NLN with 6.5% sucrose medium,5 to 10 mg/L
"O=C(O)CNCP(=O)(O)O [Glyphosate, glyphosate]",# embryos (abnormal)/plate,"[2]; glyphosate 0.2 mM, plasmid PHP22021",0
same,"selection efficiency, false positives",[2]; selection at 0.2 mM compared with 0.1 mM glyphosate,fewer false positive results
